The Ki is the dissociation constant of the complex between target and ligand, obtained from inhibition or displacement.

The results in this text go back to patent US7125871B2, “Excitatory amino acid receptor modulators” (Eli Lilly and Company, priority 2000, dated 2006).

The assay deals with T1, mGluR2 (Homo sapiens, UniProt Q14416).
T1 construct: expressed in transfected cells
As to the kind of experiment: reversal of [3H] LY341495 binding at mGluR2. The note with it: [3H] LY341495 radioligand; cells expressing human mGluR subtypes. As to the method:
(D. D. Schoepp, et al., Neuropharmacol., 1996, 35, 1661–1672 and 1997, 36, 111).
LY341495 binding with a Ki of less than 30,000 nM at […]. […] (LY341495 is described in Ornstein et al., J. Med. Chem., 1998, 41, 346–357 and J. Med. Chem., 1998, 41, 358 to 378).

T1 sequence (Q14416 19-872): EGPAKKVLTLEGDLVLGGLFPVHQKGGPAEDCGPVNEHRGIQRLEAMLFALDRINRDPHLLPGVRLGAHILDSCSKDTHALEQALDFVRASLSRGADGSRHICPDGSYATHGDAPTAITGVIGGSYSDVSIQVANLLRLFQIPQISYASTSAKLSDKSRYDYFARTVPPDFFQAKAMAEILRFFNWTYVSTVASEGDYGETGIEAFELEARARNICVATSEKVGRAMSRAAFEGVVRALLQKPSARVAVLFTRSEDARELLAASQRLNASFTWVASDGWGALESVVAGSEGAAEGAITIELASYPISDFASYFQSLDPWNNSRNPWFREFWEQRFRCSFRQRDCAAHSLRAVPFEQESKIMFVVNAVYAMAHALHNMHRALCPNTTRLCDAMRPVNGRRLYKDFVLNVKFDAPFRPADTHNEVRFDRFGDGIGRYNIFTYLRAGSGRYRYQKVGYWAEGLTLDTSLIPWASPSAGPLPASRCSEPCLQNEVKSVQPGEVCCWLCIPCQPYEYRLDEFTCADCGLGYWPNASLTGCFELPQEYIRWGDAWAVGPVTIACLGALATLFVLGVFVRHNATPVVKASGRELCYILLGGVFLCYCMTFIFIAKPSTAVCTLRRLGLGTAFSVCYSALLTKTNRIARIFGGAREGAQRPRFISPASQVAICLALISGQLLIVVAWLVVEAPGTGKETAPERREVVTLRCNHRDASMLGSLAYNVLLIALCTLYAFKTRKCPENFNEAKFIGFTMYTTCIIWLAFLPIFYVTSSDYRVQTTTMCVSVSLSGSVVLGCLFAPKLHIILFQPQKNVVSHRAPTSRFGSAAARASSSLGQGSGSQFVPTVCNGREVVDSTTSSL

Take `N[C@H](C(=O)O)[C@@H]1[C@@H](C(=O)O)[C@@H]1C(=O)NCc1ccccc1` (racemic) [Example 1, (2SR, 1′SR, 2′RS, 3′RS)-2-[2′-carboxy-3′-(phenylmethylaminocarbonyl)cyclopropyl]glycine]: the Ki worked out at 3.42 µM.
